Assay results: ChEMBL document CHEMBL4308892, “Synthesis and anti-neuroinflammatory activity of N-heterocyclic analogs based on natural biphenyl-neolignan honokiol” (Bioorg Med Chem Lett, 2019)

Legend:
[1] = test system: BV-2; experiment: Anti-inflammatory activity in mouse BV2 cells assessed as inhibition of LPS-induced nitric oxide production after 24 hrs by griess assay; format: functional, cell-based; settings: for IC50: BV-2, 24 h
[2] = Cytotoxicity against LPS-stimulated mouse BV2 cells assessed as cell viability at 20 uM after 24 hrs by MTT assay relative to control; format: cell-based, BV-2; settings: read-out: Activity
[3] = test system: BV-2; experiment: Cytotoxicity against LPS-stimulated mouse BV2 cells assessed as reduction in cell viability at <10 uM after 24 hrs by MTT assay; format: cell-based; settings: bv-2, 24 h
[4] = test system: BV-2; experiment: Anti-inflammatory activity in mouse BV2 cells assessed as inhibition of LPS-induced iNOS expression after 24 hrs by Western blot analysis; format: functional, cell-based
[5] = test system: BV-2; experiment: Anti-inflammatory activity in mouse BV2 cells assessed as inhibition of LPS-induced COX2 expression after 24 hrs by Western blot analysis; format: functional, cell-based
[6] = test system: BV-2; experiment: Anti-inflammatory activity in mouse BV2 cells assessed as inhibition of LPS-induced nitric oxide production pretreated followed by LPS-stimulation by griess assay; format: functional, cell-based

Structure (SMILES) | IC50 [1] [µM] | viability at 24 h, 20 µM [2] [%] | also measured
CNC(=N)NCCC[C@H](N)C(=O)O [TILARGININE] | 26.6 | 94.4 | 
C=CCc1ccc(O)c(-c2ccc(O)c(CC=C)c2)c1 [HONOKIOL] | 17 | 118 | 
Oc1ccc(Br)cc1-c1ccn(-c2ccccc2)n1 | > 200 | 109 | 
C=CCc1ccc(OC)c(-c2ccn(-c3ccccc3)n2)c1 | 8.92 | 68.6 | inhibition [1]: Dose-dependent effect; Activity [3]: Non-Toxic; inhibition [4]: Dose-dependent effect; inhibition [5]: Dose-dependent effect
CCCc1cc(-c2cc(Br)ccc2OC)no1 | > 200 | 97.9 | 
C=CCc1ccc(O)c(-c2ccc(OC)c(CC=C)c2)c1 [METHYLHONOKIOL] | 52.3 | 115 | 
C=CCc1ccc(O)c(-c2cc(CCC)on2)c1 | > 200 | 93.3 | 
C=CCn1ccc(-c2cc(C=C)ccc2O)n1 | 30.5 | 105 | 
CCOC(=O)COCc1cc(-c2cc(Br)ccc2OC)no1 | > 200 | 122 | 
C=CCc1ccc(OC)c(-c2cc(CN3CCN(CC=C)CC3)on2)c1 | 111 | 101 | 
C=CCc1ccc(O)c(-c2ccn(-c3ccccc3)n2)c1 | 73 | 125 | 
C=CCc1ccc(OC)c(-c2cc(COCC(=O)OCC)on2)c1 | 25.9 | 126 | 
CCCCC/C=C/C(=O)CCc1ccc(O)c(OC)c1 [SHOGAOL] |  |  | IC50 [6]: 5.59 µM
COc1ccc(Br)cc1-c1ccn(-c2ccccc2)n1 | > 200 | 124 | 
C=CCc1ccc(OC)c(-c2ccn(Cc3ccccc3)n2)c1 | 36 | 112 | 
CCCn1ccc(-c2cc(CC)ccc2O)n1 | > 200 | 109 | 
C=CCn1ccc(-c2cc(Br)ccc2O)n1 | 112 | 113 | 
C=CCc1ccc(OC)c(-c2cc(CN3CCN(C(=O)OC(C)(C)C)CC3)on2)c1 | 76.9 | 117 | 
CCCc1ccc(O)c(-c2ccn(CCC)n2)c1 | 91.3 | 129 | 
C=CCc1ccc(OC)c(-c2ccn(CC=C)n2)c1 | > 200 | 109 | 
CCCc1ccc(O)c(-c2cc[nH]n2)c1 | 60.2 | 94.7 | 
C=CCc1ccc(OC)c(-c2cc(CCC)on2)c1 | > 200 | 98.2 | 
C=CCc1ccc(OC)c(-c2cc(CO)on2)c1 | > 200 | 120 | 

Second part, led by results:

IC50 [1] [µM] | Structure (SMILES) | viability at 24 h, 20 µM [2] [%] | also measured
92.5 | C=CCc1ccc(O)c(-c2ccn(Cc3ccccc3)n2)c1 | 99.5 | 
116 | CCCc1ccc(O)c(-c2ccn(Cc3ccccc3)n2)c1 | 126 | 
> 200 | COc1ccc(Br)cc1-c1ccn(Cc2ccccc2)n1 | 122 | 
> 200 | COc1ccc(Br)cc1-c1cc(CO)on1 | 94.1 | 
> 200 | C=CCc1ccc(OC)c(-c2cc(CN3CCN(CC(=O)OCC)CC3)on2)c1 | 93.2 | 
> 200 | C=CCc1ccc(O)c(-c2cc(CO)on2)c1 | 126 | 
28.7 | C=CCOCc1cc(-c2cc(CC=C)ccc2OC)no1 | 141 | 
> 200 | COc1ccc(Br)cc1-c1cc(COCc2ccccc2)on1 | 104 | 
> 200 | C=CCn1ccc(-c2cc(Br)ccc2OC)n1 | 92.2 | 
> 200 | COc1ccc(Br)cc1-c1cc(CN2CCN(C(=O)OC(C)(C)C)CC2)on1 | 100 | 
1.2 | C=CCc1ccc(O)c(-c2ccn(CC=C)n2)c1 | 59.9 | inhibition [1]: Dose-dependent effect; Activity [3]: Non-Toxic; inhibition [4]: Dose-dependent effect; inhibition [5]: Dose-dependent effect
> 200 | C=CCc1ccc(OC)c(-c2cc(CN3CCN(Cc4ccccc4)CC3)on2)c1 | 98.6 | 
109 | CCCc1ccc(O)c(-c2ccn(-c3ccccc3)n2)c1 | 125 | 
> 200 | C=CCc1ccc(OC)c(-c2cc(COCc3ccccc3)on2)c1 | 145 | 
90.4 | C=CCOCc1cc(-c2cc(Br)ccc2OC)no1 | 94.6 | 
> 200 | Oc1ccc(Br)cc1-c1ccn(Cc2ccccc2)n1 | 107 | 
